Earlier results in patent US20140044784A1, “COMBINED FORMULATION WITH IMPROVED STABILITY” (BORYUNG PHARMACEUTICAL CO., LTD, priority 2011, published 2014).

Conditions: daily administration of a low dose (about 80 mg)

## CC(=O)Oc1ccccc1C(=O)O [aspirin, acetylsalicylic acid]
  Reduction of heart attack, stroke, and cardiovascular mortalities: at least 25%
